Earlier results as cited in patent publication US20100137246A1, “Anti-inflammatory compositions and methods” (Searete LLC, a limited liability corporation of the State …, priority 2008, published 2010).

Legend:
proteasome = details: cultured breast cancer cells; through binding copper
Fyn = Fyn (Homo sapiens, UniProt P06241); details: at nanomolar concentrations
[1] = single agent, infused at 400 mg over one hour
[2] = system: lethal septic shock in mice

Fyn, sequence (P06241 whole entry, species assumed, the tested form may be a part): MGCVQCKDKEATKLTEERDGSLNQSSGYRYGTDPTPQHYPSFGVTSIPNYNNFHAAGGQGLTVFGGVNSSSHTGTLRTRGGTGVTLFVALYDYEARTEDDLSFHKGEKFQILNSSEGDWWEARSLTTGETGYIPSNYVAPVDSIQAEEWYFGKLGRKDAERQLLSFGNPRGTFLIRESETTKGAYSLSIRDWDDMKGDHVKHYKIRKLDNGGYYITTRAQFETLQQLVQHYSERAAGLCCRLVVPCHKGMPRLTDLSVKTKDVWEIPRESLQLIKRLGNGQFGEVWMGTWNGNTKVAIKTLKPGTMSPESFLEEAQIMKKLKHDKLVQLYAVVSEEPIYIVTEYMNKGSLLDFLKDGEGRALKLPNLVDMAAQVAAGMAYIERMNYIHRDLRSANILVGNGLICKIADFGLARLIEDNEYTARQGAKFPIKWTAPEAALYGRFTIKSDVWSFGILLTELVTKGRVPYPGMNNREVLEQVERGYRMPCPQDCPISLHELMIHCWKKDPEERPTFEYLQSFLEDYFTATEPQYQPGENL

Structure (SMILES): CCN(CC)C(=S)SSC(=S)N(CC)CC [disulfuram, 1-(diethylthiocarbamoyldisulfanyl)-N,N-diethyl-methanethioamide]
- proteasomal activity (proteasome): inhibits proteasomal activity

Structure (SMILES): Cc1nc(Nc2ncc(C(=O)Nc3c(C)cccc3Cl)s2)cc(N2CCN(CCO)CC2)n1.O [dasatinib, N-(2-chloro-6-methylphenyl)-2-[[6-[4-(2-hydroxyethyl)-1-piperazinyl]-2-methyl-4-pyrimidinyl]amino]-5-thiazolecarboxamide, monohydrate]
- inhibition of Fyn (Fyn): inhibits

Structure (SMILES): CCN(CC)CCCC(C)Nc1ccnc2cc(Cl)ccc12 (centres unmarked) [Chloroquine]
- inhibition of CpG-induced Src family kinase activation, or its dependent cellular responses (Src family kinase): does not inhibit

Structure (SMILES): CCN(CC)CCCC(C)Nc1ccnc2cc(Cl)ccc12.O=P(O)(O)O.O=P(O)(O)O (centres unmarked) [chloroquine phosphate, 7-chloro-4-[[4-(diethylamino)-1-methylbutyl]amino]quinoline phosphate (1:2)]
- tolerability of infusion [1]: without complication

Structure (SMILES): Cl.Cl.Nc1ccccc1Oc1ccc2c(N)nsc2c1 [Example M62812, 3-amino-6-(2-aminophenoxy)-1,2-benzisothiazole dihydrochloride]
- prevention of lethal septic shock [2]: prevents lethal septic shock
